The values below are quoted from earlier work in patent US10588912B2, “Methods of reducing mammographic breast density and/or breast cancer risk” (Havah Therapeutics Pty Ltd., priority 2014, dated 2020).

For this series the following is noted: oral absorption.

Each structure is given as a SMILES string.

`C[C@]12CC[C@H]3[C@@H](CCC4=CC(=O)CC[C@@]43C)[C@@H]1CC[C@@H]2O` [testosterone]: the “fraction broken down in the intestines by aromatase and other metabolic pathways” value is “approximately 85%”.
